Data on 18 compounds can be found in ChEMBL document CHEMBL3853353, “Identification and optimization of a new series of anti-tubercular quinazolinones” (Bioorg Med Chem Lett, 2016).

Converted amounts (≈) assume the structure as drawn.

For data set [1], the target named is T1, Cytochrome P450 3A4 (Homo sapiens, UniProt P08684). The data set can be described thus: Inhibition of CYP3A4 in human liver microsomes assessed as 1'-hydroxymidazolam metabolite formation using midazolam as substrate incubated for 10 mins by HPLC-MS method. On the technique in general: Liver microsomes are a subcellular fraction often used to study metabolism.

Data set [2] can be described thus: Permeability in human Caco2 cells. To be noted: caco-2. (In general: Caco-2 cells form a polarised layer with tight junctions and transporters.)
The nature of data set [3]: Aqueous equilibrium solubility of compound in pH 7.4 solution at 20 degC. To be noted: aqueous pH 7.4 solution.
In data set [4] the target is T1, Cytochrome P450 3A4. The data set can be described thus: Inhibition of CYP3A4 in human liver microsomes assessed as 6-beta-hydroxytestosterone metabolite formation using testosterone as substrate incubated for 30 mins by HPLC-MS method.
A short description of data set [5]: Aqueous equilibrium solubility of compound in pH 1 solution at 20 degC. To be noted: aqueous pH 1 solution.
In data set [6] the test system is Mycobacterium tuberculosis. The data set can be described thus: Antimycobacterial activity against Mycobacterium tuberculosis H37Rv incubated for 5 days by Bactiter-Glo assay. Type of data set: functional. As to conditions: 120 h.
Data set [7] relates to Mycobacterium tuberculosis. The data set can be described thus: Ratio of MIC80 for Mycobacterium tuberculosis H37Rv in presence of 25% human serum to MIC80 for Mycobacterium tuberculosis H37Rv. It is filed as functional.
Data set [8] is described as follows: Cytotoxicity against human HepG2 cells assessed as reduction in cell viability after 40 hrs by Celltiter-Glo assay.
Data set [9] in a line: Lipophilicity, log P of compound. As to conditions: octanol/water.
In data set [10] the test system is Mycobacterium tuberculosis. The data set can be described thus: Antimycobacterial activity against Mycobacterium tuberculosis H37Rv incubated for 5 days in presence of 25% human serum by Bactiter-Glo assay. As to conditions: 120 h. It is filed as functional.

T1 sequence (P08684 whole entry): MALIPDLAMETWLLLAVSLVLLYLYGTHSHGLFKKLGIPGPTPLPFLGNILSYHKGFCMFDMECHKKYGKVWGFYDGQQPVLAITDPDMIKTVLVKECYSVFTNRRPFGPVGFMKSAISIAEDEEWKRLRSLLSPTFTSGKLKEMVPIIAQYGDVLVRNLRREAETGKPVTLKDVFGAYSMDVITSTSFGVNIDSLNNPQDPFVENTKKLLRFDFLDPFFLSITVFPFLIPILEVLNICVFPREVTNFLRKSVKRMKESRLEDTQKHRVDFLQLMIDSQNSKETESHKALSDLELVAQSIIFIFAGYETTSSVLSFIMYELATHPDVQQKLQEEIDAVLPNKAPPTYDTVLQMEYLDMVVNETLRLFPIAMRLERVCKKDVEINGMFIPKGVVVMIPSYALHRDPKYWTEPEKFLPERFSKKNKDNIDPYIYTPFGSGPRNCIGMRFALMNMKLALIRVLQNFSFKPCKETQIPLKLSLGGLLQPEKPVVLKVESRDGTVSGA

For the compound `COc1ccc(CCNc2nc3cc(C)ccc3c(=O)n2C)cc1`, the IC50 (usually the concentration at which inhibition is half-maximal) on Cytochrome P450 3A4 [1] was less than 1 µM; at Cytochrome P450 3A4 [4], 4.8 µM. The permeability result in data set [2] is recorded as “Permeable”. In addition, the results for the thermodynamic solubility in data set [3] and in [5] were less than 1 µg/mL and 221 µg/mL (≈ 683 µM), respectively. Further, in data set [6], the MIC80 (in general, an inhibitory concentration at the 80% level, which refers to growth in some studies and to a panel of isolates in others) worked out at 0.01 µM (≈ 0.00323 µg/mL). The Ratio in [7] is listed as greater than 10. Further, the half-inhibitory concentration (IC50) at 40 h in data set [8] (HepG2 cells) is greater than 30 µM.
For `COc1ccc(CCNc2nc3cc(C#N)ccc3c(=O)n2C)cc1`, in data set [6], the MIC80 amounted to 0.48 µM (≈ 0.161 µg/mL). Besides, in [7], the Ratio is greater than 10. In addition, the IC50 at 40 h in [8] (HepG2 cells) was 12.7 µM.
Regarding `COc1ccc(CCNc2nc3cc(OC)ccc3c(=O)n2C)cc1`, the IC50 at Cytochrome P450 3A4 [1] is less than 1 µM; at Cytochrome P450 3A4 [4], 10 µM. The permeability entry in data set [2] is “Permeable”. Further, the thermodynamic solubility (commonly solubility found after equilibrating the solid with the medium) in data set [3] stood at 4 µg/mL (≈ 11.8 µM); in [5] it was 734 µg/mL (≈ 2160 µM). Also, the log partition coefficient (logP) (commonly a log measure of how a compound divides between an organic and an aqueous phase) in data set [9] stood at 3.1. The same compound had an MIC80 in [6] of 0.026 µM (≈ 0.00882 µg/mL). Also, the Ratio in data set [7] is greater than 10. The IC50 at 40 h in [8] (HepG2 cells) was greater than 30 µM.
The compound `Cn1c(NCCc2ccc(-c3ccccc3)nn2)nc2cc(Cl)ccc2c1=O` had an MIC80 in data set [6] of 1.12 µM (≈ 0.439 µg/mL). In addition, the Ratio in data set [7] turned out to be 8. Further, in [8] (HepG2 cells), the IC50 at 40 h was 15.1 µM.
Turning to `COc1ccc(CCNc2nc3cc(Cl)ccc3c(=O)[nH]2)cc1`, the MIC80 in data set [6] stood at 6.3 µM (≈ 2.08 µg/mL). Moreover, in data set [7], the Ratio is given as greater than 10.
Take `Cn1c(NCCc2ccc(OC(F)(F)F)cc2)nc2cc(Cl)ccc2c1=O`: the values for the IC50 on Cytochrome P450 3A4 [1] and at Cytochrome P450 3A4 [4] were 4 µM and greater than 30 µM, respectively. For the same compound, the figures for the MIC80 in data set [10] and in [6] were 2.33 µM and 0.07 µM (≈ 0.0278 µg/mL), respectively. Also, the permeability result in data set [2] was “Permeable”. In addition, the results for the thermodynamic solubility in [3] and in data set [5] were less than 1 µg/mL and 43 µg/mL (≈ 108 µM), respectively. Further, in data set [9], the logP was determined as 4.95. In addition, in [7], the Ratio stood at 8. Besides, the 50% inhibitory concentration (IC50) at 40 h in data set [8] (HepG2 cells) turned out to be 9.9 µM.
For the compound `COc1ccc(CCNc2nc3cc(Cl)ccc3c(=O)n2C)nc1`, the half-inhibitory concentration (IC50) on Cytochrome P450 3A4 [1] is less than 1 µM; at Cytochrome P450 3A4 [4], 7.4 µM. Further, in [2], the permeability result is “Permeable”. Also, the solubility (thermodynamic) in data set [3] turned out to be 9 µg/mL (≈ 26.1 µM); in data set [5], 1140 µg/mL (≈ 3300 µM). This compound also gave a logP in data set [9] of 3.32. In [6], this compound yielded an MIC80 of 0.53 µM (≈ 0.183 µg/mL). Further, the Ratio in [7] amounted to 8. The IC50 at 40 h in data set [8] (HepG2 cells) is 27 µM.
`Cn1c(NCCc2ccc(-n3cccn3)cc2)nc2cc(Cl)ccc2c1=O`: the MIC80 in data set [10] was determined as 8.56 µM; in data set [6], 0.02 µM (≈ 0.0076 µg/mL). For the same compound, in [8] (hepg2), the half-maximal inhibitory concentration (IC50) at 40 h was 17.3 µM.
Regarding `COc1ccc(CCNc2nc3cc(N)ccc3c(=O)n2C)cc1`, the MIC80 in data set [10] turned out to be 0.198 µM; in data set [6] it was 0.04 µM (≈ 0.013 µg/mL). The compound also displayed a logP in data set [9] of 1.94. Also, the Ratio in data set [7] is recorded as 5.
Turning to `COc1ccc(CCN(C)c2nc3cc(Cl)ccc3c(=O)n2C)cc1`, the MIC80 in data set [6] is 11.2 µM (≈ 4.01 µg/mL). Besides, the Ratio in data set [7] is greater than 10. Also, the IC50 at 40 h in [8] (HepG2 cells) is greater than 30 µM.
`COc1ccc(-c2ccc(CCNc3nc4cc(Cl)ccc4c(=O)n3C)cc2)cn1` displayed a lipophilicity (logP) in data set [9] of 4.68. Also, the MIC80 in data set [6] stood at 0.09 µM (≈ 0.0379 µg/mL). Further, in data set [7], the Ratio came to 8. In addition, the 50% inhibitory concentration (IC50) at 40 h in data set [8] (HepG2 cells) came out at 11.3 µM.
For `Cn1c(NCCc2ccc(N3CCOCC3)cc2)nc2cc(Cl)ccc2c1=O`, the IC50 on Cytochrome P450 3A4 [1] and at Cytochrome P450 3A4 [4] was 11 µM each time. Besides, the MIC80 in data set [10] is greater than 10 µM; in data set [6], 0.33 µM (≈ 0.132 µg/mL). Moreover, the permeability result in data set [2] is on record as “Permeable”. Besides, the solubility (thermodynamic) in data set [3] stood at 8 µg/mL (≈ 20.1 µM); in data set [5], 1090 µg/mL (≈ 2740 µM). In data set [7], the Ratio was found to be 8. Further, the IC50 at 40 h in [8] (HepG2 cells) was greater than 30 µM.
In the case of `COc1ccc(CCNc2nc3cc(F)ccc3c(=O)n2C)cc1`, the MIC80 in data set [6] was 0.2 µM (≈ 0.0655 µg/mL). Besides, in [7], the Ratio is greater than 10. In [8] (HepG2 cells), the IC50 at 40 h is greater than 30 µM.
Take `COc1ccc(-c2ccc(CCNc3nc4cc(Cl)ccc4c(=O)n3C)cc2)cc1`: the IC50 stood at 8 µM at Cytochrome P450 3A4 [1] and 7.9 µM on Cytochrome P450 3A4 [4]. For the same compound, the MIC80 in data set [10] is 1.47 µM; in data set [6] it was 0.007 µM (≈ 0.00294 µg/mL). Further, the permeability result in data set [2] is “Permeable”. The solubility (thermodynamic) was less than 1 µg/mL in [3] and 26 µg/mL (≈ 61.9 µM) in data set [5]. In addition, the lipophilicity (logP) in data set [9] is 5.13. The Ratio in [7] is recorded as 200. Further, the IC50 at 40 h in [8] (HepG2 cells) is greater than 30 µM.
As for `COc1ccc(CCNc2nc3cc(N(C)C)ccc3c(=O)n2C)cc1`, in [9], the logP was found to be 1.94. In [6], this compound returned an MIC80 of 0.11 µM (≈ 0.0388 µg/mL). In addition, the Ratio in [7] is greater than 10.
As for `COc1ccc(-c2ccc(CCNc3nc4cc(Cl)ccc4c(=O)n3C)nn2)cc1`, in [6], the MIC80 came to 0.74 µM (≈ 0.312 µg/mL). Also, the Ratio in data set [7] is on record as 8.
`CCn1c(NCCc2ccc(OC)cc2)nc2cc(Cl)ccc2c1=O`: the MIC80 in data set [6] came to 1.1 µM (≈ 0.394 µg/mL). For the same compound, in [7], the Ratio is given as greater than 10. Besides, the IC50 at 40 h in data set [8] (HepG2 cells) amounted to 21 µM.
`Cn1c(NCCc2ccc(Oc3ccccn3)cc2)nc2cc(Cl)ccc2c1=O`: the MIC80 in data set [10] worked out at 7.37 µM; in data set [6] it was 0.06 µM (≈ 0.0244 µg/mL). Besides, in data set [7], the Ratio is given as 8. In addition, the concentration for half-maximal inhibition (IC50) at 40 h in data set [8] (HepG2 cells) is 12.1 µM.
